Test results from US9115139B2, “Pyrazinooxazepine derivatives” (TAKEDA PHARMACEUTICAL COMPANY LIMITED, priority 2009, dated 2015).

Target: serotonin 5-HT2C receptor (VSV type isoform, stably expressing CHO cell) (Homo sapiens, UniProt P28335, I156V/I160V/N158S)
Assay type: cell-based

Chain of serotonin 5-HT2C receptor (VSV type isoform, stably expressing CHO cell) (P28335 33-458 I156V/N158S/I160V limits assumed): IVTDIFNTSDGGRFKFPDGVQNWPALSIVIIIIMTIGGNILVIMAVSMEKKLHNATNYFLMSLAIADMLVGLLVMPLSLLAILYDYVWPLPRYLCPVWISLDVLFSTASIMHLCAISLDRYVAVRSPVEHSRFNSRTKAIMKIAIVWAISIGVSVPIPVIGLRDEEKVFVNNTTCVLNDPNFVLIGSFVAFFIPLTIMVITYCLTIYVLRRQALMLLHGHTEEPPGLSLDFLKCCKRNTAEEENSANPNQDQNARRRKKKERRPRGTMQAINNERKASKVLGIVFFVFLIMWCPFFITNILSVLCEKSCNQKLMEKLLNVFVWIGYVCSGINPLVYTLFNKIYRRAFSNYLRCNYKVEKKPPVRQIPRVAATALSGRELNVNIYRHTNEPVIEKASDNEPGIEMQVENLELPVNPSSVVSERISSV

SMILES | ratio (%) relative to maximum response by 5-HT (1 μM)
CC(C)Oc1cnc2c(n1)OCCNC2.Cl [Example 2, 3-(1-methylethoxy)-6,7,8,9-tetrahydropyrazino[2,3-f][1,4]oxazepine hydrochloride] | 93%
C[C@@H]1COCCN1c1cnc2c(n1)OCCNC2.Cl [Example 5, 3-[(3R)-3-methylmorpholin-4-yl]-6,7,8,9-tetrahydropyrazino[2,3-f][1,4]oxazepine hydrochloride] | 95%
CC(C)N(C)c1cnc2c(n1)OCCNC2.Cl [Example 8, N-methyl-N-(1-methylethyl)-6,7,8,9-tetrahydropyrazino[2,3-f][1,4]oxazepin-3-amine hydrochloride] | 95%
Cl.c1nc2c(nc1C1CC1)OCCNC2 [Example 10, 3-cyclopropyl-6,7,8,9-tetrahydropyrazino[2,3-f][1,4]oxazepine hydrochloride] | 89%
